Data from patent US20100160369A1, “S1P1 Agonists and Methods of Making And Using” (EXELIXIS, INC., priority 2008, published 2010).
pEC50: −log10 of the molar value.

How the values were obtained:
S1P1 [1] = target: T1, S1P1 (Homo sapiens, UniProt P21453); assay: Tango β-arrestin Recruitment Assay in HEK293 cells (Assay 2a); format: cell-based; design: linker with TEV protease (N1a) cleavage site (C); host or cells: HEK293, transiently transfected; conditions: Tango β-arrestin Recruitment Assay, read-out: Assay 2a EC50
Source text: For the Tango™ β-arrestin recruitment assay, the cytoplasmic C-terminus of S1P1 is tethered to the tTA transcriptional activator with a linker that contains a cleavage site for the N1a protease from tobacco etch virus (TEV protease). The C-terminus of the human β-arrestin2 protein is fused to TEV protease. Binding of an agonist recruits the β-arrestin-TEV fusion protein to the receptor resulting in cleavage of the linker and release of tTA to enter the nucleus and subsequently activate a tTA-dependent luciferase reporter gene.
Frozen HEK293 cells transiently transfected with receptor cDNAs for S1P1 (Invitrogen) were thawed and suspended in 10 mL of Pro293a-CDM culture medium (Invitrogen) supplemented with 4 mM L-Glutamine (Invitrogen), 1× Pen/Strep (100 units/mL penicillin and 100 μg/mL streptomycin, Invitrogen) and 0.1% fatty acid free BSA (Sigma-Aldrich). Cells were added to the wells of a 384-well white opaque bottom assay plate (PerkinElmer) at 3,000-6,000 cells per well and the plate was incubated for approximately 4 h in a 37° C. incubator. Test compounds were tested at maximum concentrations of 10 μM for the agonist assays. Compounds were diluted in DMSO (10 concentration points, 3-fold each) and added to the assay plate at a 1% final DMSO concentration. For each compound, there were duplicate assay plates and each assay plate had duplicate wells per concentration point. The plate was incubated at 37° C. for 30 min. The efficacy control was 5 μM S1P (Avanti). Following agonist addition, the assay plates were incubated in a 37° C. incubator for 16-18 h. Luciferase assay reagent was added and luminescence measured in an EnVision plate reader (PerkinElmer). To determine agonist activity, percent activity was calculated as [(test compound−background)/(positive control−background)* 100], where background is the luminescence of the DMSO alone control and the positive control is the luminescence from cells incubated with the efficacy control 5 μM S1P. The percent activities were plotted against compound concentration to determine EC50 using XLFit (IDBS).
Assay 1 is the CNG cAMP Assay as described in Biological Example 1. Assay 2a and 2b are the Tango™ β-arrestin Recruitment Assay in HEK293 and U2OS cells, respectively, as described in Biological Example 2. Assay 3a is the hS1P1R GTPγS Binding Assay as described in Biological Example 3. Assay 3b is the GTP-Eu Binding Assay as described in Biological Example 3. EC50's were measured unless otherwise noted. […] In the table, “nt” means the Compound was not tested and “no” means the compound was tested but had no measurable activity under the assay conditions employed.
Target sequence in this assay (P21453 whole entry, the tested form may be a part): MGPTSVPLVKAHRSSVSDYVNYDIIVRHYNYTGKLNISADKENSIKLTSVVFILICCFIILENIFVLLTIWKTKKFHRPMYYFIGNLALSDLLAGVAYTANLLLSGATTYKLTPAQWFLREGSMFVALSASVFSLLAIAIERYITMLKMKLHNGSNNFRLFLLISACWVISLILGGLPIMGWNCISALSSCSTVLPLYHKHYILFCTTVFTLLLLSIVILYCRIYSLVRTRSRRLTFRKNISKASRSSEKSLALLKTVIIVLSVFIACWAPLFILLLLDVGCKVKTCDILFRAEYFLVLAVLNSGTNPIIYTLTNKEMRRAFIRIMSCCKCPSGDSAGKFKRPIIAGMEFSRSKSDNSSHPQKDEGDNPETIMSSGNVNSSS
Target sequence in this assay (P32121 whole entry partner, the tested form may be a part): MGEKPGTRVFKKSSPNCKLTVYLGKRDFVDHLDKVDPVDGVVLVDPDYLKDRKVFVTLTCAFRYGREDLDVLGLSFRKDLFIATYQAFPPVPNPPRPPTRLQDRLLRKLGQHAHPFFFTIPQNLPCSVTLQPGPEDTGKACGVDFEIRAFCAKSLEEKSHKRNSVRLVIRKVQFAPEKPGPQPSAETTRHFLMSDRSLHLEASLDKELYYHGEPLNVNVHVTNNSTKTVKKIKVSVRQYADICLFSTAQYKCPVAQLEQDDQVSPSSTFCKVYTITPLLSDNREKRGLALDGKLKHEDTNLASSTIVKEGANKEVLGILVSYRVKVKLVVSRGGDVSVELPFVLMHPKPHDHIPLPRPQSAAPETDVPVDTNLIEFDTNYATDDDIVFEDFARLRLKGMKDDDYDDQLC

S1P1 [2] = target: T1, S1P1; assay: CNG cAMP Assay (Assay 1); format: cell-based; design: host or cells: HEK293 cells expressing the CNG channel; conditions: read-out: Assay 1 EC50
In short: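 HEK293 cells expressing CNG channel and S1P1, membrane-potential dye loaded; compounds (top 10 μM, 10-point 3-fold, 1.8% DMSO) added with 25 μM Ro 20-1724, 500 nM NECA and 10 nM S1P for 90 min. T90/T0 fluorescence (Ex 350/Em 590 nm) normalised to NECA-alone vs DMSO; EC50 fitted.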
Target sequence in this assay (P21453 whole entry, the tested form may be a part): as the sequence (P21453 whole entry, the tested form may be a part) above

Row | pEC50 (S1P1 [1]) | pEC50 (S1P1 [2]) | SMILES
1 | ≥ 7.00 | ≥ 7.00 | Cc1cc(Br)c2nc(-c3nc(-c4cc(F)c(CCC(=O)O)cc4Cl)no3)cn2c1 [Entry 25]
2 | ≥ 7.00 | ≥ 7.00 | Cc1cc(Cl)c2nc(-c3nc(-c4cc(F)c(CCC(=O)O)cc4Cl)no3)cn2c1 [Entry 28]
3 | ≥ 7.00 | ≥ 7.00 | O=C(O)CCc1cc(Cl)c(-c2noc(-c3cn4cc(I)ccc4n3)n2)cc1F [Entry 31]
4 | 6.30 to 7.00 | ≥ 7.00 | O=C(O)CCc1cc(Cl)c(-c2noc(-c3cn4cc([N+](=O)[O-])cc(Cl)c4n3)n2)cc1F [Entry 36]
5 | 6.30 to 7.00 | ≥ 7.00 | N#Cc1cc(Br)c2nc(-c3nc(-c4cc(F)c(CCC(=O)O)cc4Cl)no3)cn2c1 [Entry 47]
6 | ≥ 7.00 | ≥ 7.00 | O=C(O)CCc1cc(Cl)c(-c2noc(-c3cn4cc(Br)cc(Cl)c4n3)n2)cc1F [Entry 64]
7 | ≥ 7.00 | ≥ 7.00 | O=C(O)CN1CCC(Oc2cc(Cl)c(-c3noc(-c4cn5cc(C(F)(F)F)cc(Cl)c5n4)n3)cc2F)C1 (centres unmarked) [Example 92, {3-[(5-chloro-4-{5-[8-chloro-6-(trifluoromethyl)imidazo[1,2-a]pyridin-2-yl]-1,2,4-oxadiazol-3-yl}-2-fluorophenyl)oxy]pyrrolidin-1-yl}acetic acid]
8 | ≥ 7.00 | ≥ 7.00 | O=C(O)[C@H]1C[C@H](Oc2ccc(-c3noc(-c4cn5cc(C(F)(F)F)cc(Cl)c5n4)n3)c(Cl)c2)CN1 [Example 97, (4S)-4-[(3-chloro-4-{5-[8-chloro-6-(trifluoromethyl)imidazo[1,2-a]pyridin-2-yl]-1,2,4-oxadiazol-3-yl}phenyl)oxy]-D-proline]
9 | ≥ 7.00 | ≥ 7.00 | Cc1cc(NS(C)(=O)=O)ccc1-c1noc(-c2cn3cc(C(F)(F)F)cc(Cl)c3n2)n1 [Example 98, N-(4-{5-[8-chloro-6-(trifluoromethyl)imidazo[1,2-a]pyridin-2-yl]-1,2,4-oxadiazol-3-yl}-3-methylphenyl)methanesulfonamide]
10 | ≥ 7.00 | ≥ 7.00 | CS(=O)(=O)NCc1ccc(-c2noc(-c3cn4cc(C(F)(F)F)cc(Cl)c4n3)n2)c(Cl)c1 [Example 136, N-[(3-chloro-4-{5-[8-chloro-6-(trifluoromethyl)imidazo[1,2-a]pyridin-2-yl]-1,2,4-oxadiazol-3-yl}phenyl)methyl]methanesulfonamide]
11 | 6.30 to 7.00 | 6.00 to 6.30 | Fc1cccc(F)c1-c1noc(-c2cn3cc(C(F)(F)F)cc(Cl)c3n2)n1 [Example 141, 8-chloro-2-[3-(2,6-difluorophenyl)-1,2,4-oxadiazol-5-yl]-6-(trifluoromethyl)imidazo[1,2-a]pyridine]
12 | 6.00 to 6.30 | 6.30 to 7.00 | Fc1ccccc1-c1noc(-c2cn3cc(C(F)(F)F)cc(Cl)c3n2)n1 [Example 142, 8-chloro-2-[3-(2-fluorophenyl)-1,2,4-oxadiazol-5-yl]-6-(trifluoromethyl)imidazo[1,2-a]pyridine]
13 | 6.30 to 7.00 | ≥ 7.00 | Cc1ccccc1-c1noc(-c2cn3cc(C(F)(F)F)cc(Cl)c3n2)n1 [Example 150, 8-chloro-2-[3-(2-methylphenyl)-1,2,4-oxadiazol-5-yl]-6-(trifluoromethyl)imidazo[1,2-a]pyridine]
14 | 6.30 to 7.00 | ≥ 7.00 | FC(F)(F)c1cc(Br)c2nc(-c3nc(-c4ccccc4Cl)no3)cn2c1 [Example 159, 8-bromo-2-[3-(2-chlorophenyl)-1,2,4-oxadiazol-5-yl]-6-(trifluoromethyl)imidazo[1,2-a]pyridine]
15 | 6.30 to 7.00 | ≥ 7.00 | Cc1cc(C#N)c2nc(-c3nc(-c4cc(F)c(CCC(=O)O)cc4Cl)no3)cn2c1 [Example 160, 3-{5-chloro-4-[5-(8-cyano-6-methylimidazo[1,2-a]pyridin-2-yl)-1,2,4-oxadiazol-3-yl]-2-fluorophenyl}propanoic acid]
16 | 6.30 to 7.00 | ≥ 7.00 | CC(Cc1ccc(-c2noc(-c3cn4cc(C(F)(F)F)cc(Cl)c4n3)n2)c(Cl)c1)C(=O)O (centres unmarked) [Example 171, 3-(3-chloro-4-{5-[8-chloro-6-(trifluoromethyl)imidazo[1,2-a]pyridin-2-yl]-1,2,4-oxadiazol-3-yl}phenyl)-2-methylpropanoic acid]
17 | 6.30 to 7.00 | ≥ 7.00 | Cc1cc(CC(C)C(=O)O)ccc1-c1noc(-c2cn3cc(C(F)(F)F)cc(Br)c3n2)n1 (centres unmarked) [Example 173, 3-(4-{5-[8-bromo-6-(trifluoromethyl)imidazo[1,2-a]pyridin-2-yl]-1,2,4-oxadiazol-3-yl}-3-methylphenyl)-2-methylpropanoic acid]
18 | 6.30 to 7.00 | ≥ 7.00 | Cc1cc(CC(C)C(=O)O)ccc1-c1noc(-c2cn3cc(C(F)(F)F)cc(Cl)c3n2)n1 (centres unmarked) [Example 180, 3-(4-{5-[8-chloro-6-(trifluoromethyl)imidazo[1,2-a]pyridin-2-yl]-1,2,4-oxadiazol-3-yl}-3-methylphenyl)-2-methylpropanoic acid]
19 | 6.30 to 7.00 | ≥ 7.00 | Cc1cc(C(C)CC(=O)O)ccc1-c1noc(-c2cn3cc(C(F)(F)F)cc(Cl)c3n2)n1 (centres unmarked) [Example 181, 3-(4-{5-[8-chloro-6-(trifluoromethyl)imidazo[1,2-a]pyridin-2-yl]-1,2,4-oxadiazol-3-yl}-3-methylphenyl)butanoic acid]
20 | ≥ 7.00 | ≥ 7.00 | Oc1cc(Cl)c(-c2noc(-c3cn4cc(C(F)(F)F)cc(Cl)c4n3)n2)cc1Cl [Example 191, 2,5-dichloro-4-{5-[8-chloro-6-(trifluoromethyl)imidazo[1,2-a]pyridin-2-yl]-1,2,4-oxadiazol-3-yl}phenol]
21 | 6.30 to 7.00 | ≥ 7.00 | CC(Cc1cc(Cl)c(-c2noc(-c3cn4cc(C(F)(F)F)cc(Cl)c4n3)n2)cc1F)C(=O)O (centres unmarked) [Example 203, 3-(5-chloro-4-{5-[8-chloro-6-(trifluoromethyl)imidazo[1,2-a]pyridin-2-yl]-1,2,4-oxadiazol-3-yl}-2-fluorophenyl)-2-methylpropanoic acid]
22 | ≥ 7.00 | ≥ 7.00 | NCC(O)COc1cc(Cl)c(-c2noc(-c3cn4cc(C(F)(F)F)cc(Cl)c4n3)n2)cc1F (centres unmarked) [Example 216, 1-amino-3-[(5-chloro-4-{5-[8-chloro-6-(trifluoromethyl)imidazo[1,2-a]pyridin-2-yl]-1,2,4-oxadiazol-3-yl}-2-fluorophenyl)oxy]propan-2-ol]
23 | 6.30 to 7.00 | ≥ 7.00 | O=C(O)CCc1ccc(-c2nc(-c3cn4cc(C(F)(F)F)cc(Cl)c4n3)no2)cc1Cl [Example 235, 3-(2-chloro-4-{3-[8-chloro-6-(trifluoromethyl)imidazo[1,2-a]pyridin-2-yl]-1,2,4-oxadiazol-5-yl}phenyl)propanoic acid]
24 | 6.30 to 7.00 | ≥ 7.00 | OCCOc1ccc(-c2nnc(-c3cn4cc(C(F)(F)F)cc(Cl)c4n3)s2)c(Cl)c1 [Example 243, 2-[(3-chloro-4-{5-[8-chloro-6-(trifluoromethyl)imidazo[1,2-a]pyridin-2-yl]-1,3,4-thiadiazol-2-yl}phenyl)oxy]ethanol]
25 | 6.30 to 7.00 | ≥ 7.00 | O=C(O)CCOc1ccc(-c2noc(-c3cn4cc(C(F)(F)F)cc(Cl)c4n3)n2)c(Cl)c1 [Example 255, 3-[(3-chloro-4-{5-[8-chloro-6-(trifluoromethyl)imidazo[1,2-a]pyridin-2-yl]-1,2,4-oxadiazol-3-yl}phenyl)oxy]propanoic acid]
